This passage reports TGI results from PubChem BioAssay (NCI).

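Grown in 96-well plates, cells were treated for 48 hours with each compound at five concentrations. Insufficient inhibition: endpoint recorded as highest concentration tested. Definition used: TGI = concentration required for complete inhibition of growth.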 Bounds are passed on as bounds.

Test systems include K-562 leukemia; MCF7 breast; SN12C renal; NCI-H226 lung; BT-549 breast; HL-60(TB) leukemia; 786-0 renal; EKVX NSCLC; NCI-H23 lung; UACC-62 melanoma; HCT-15 colon; U251 CNS; HS 578T breast; OVCAR-3 ovarian; SF-295 CNS.
Holding throughout (assay): DTP human tumour cell line panel, 48 h

Turning to `CC(Cn1c(=O)oc2ccccc21)N(C)C` (stereo not given), the TGI in the assay with K-562 leukemia, in the assay with MCF7 breast, in the assay on SN12C renal, in the assay on NCI-H226 lung, in the assay on BT-549 breast and with HL-60(TB) leukemia was above 100 µM in each case. Also, the total growth inhibition concentration (TGI) in the assay on 786-0 renal, in the assay with EKVX NSCLC, in the assay with NCI-H23 lung, in the assay with UACC-62 melanoma, in the assay on HCT-15 colon and in the assay with U251 CNS was above 100 µM in each case. In addition, the TGI in the assay with HS 578T breast, in the assay on OVCAR-3 ovarian and with SF-295 CNS was above 100 µM each time.

On to `COC(=O)CCc1cc(OC)c2oc(-c3ccc(OC)c(OC)c3)c(CO)c2c1`, for which the TGI in the assay with K-562 leukemia, in the assay with MCF7 breast, in the assay on SN12C renal, with NCI-H226 lung, with BT-549 breast and in the assay with HL-60(TB) leukemia was above 100 µM in each case. The TGI in the assay with 786-0 renal, with EKVX NSCLC, with NCI-H23 lung, in the assay with UACC-62 melanoma, in the assay on HCT-15 colon and in the assay on U251 CNS was above 100 µM each time. Also, the TGI in the assay with HS 578T breast, in the assay with OVCAR-3 ovarian and in the assay with SF-295 CNS was above 100 µM throughout.

Regarding `C/C1=C\CC[C@@]2(C)O[C@@H]2C[C@@H]2[C@H](C/C(C)=C/CC1)OC(=O)[C@]21CO1`, the TGI in the assay on K-562 leukemia, in the assay on MCF7 breast, in the assay on SN12C renal, in the assay on NCI-H226 lung, in the assay on BT-549 breast and in the assay with HL-60(TB) leukemia was above 100 µM each time. In addition, the TGI in the assay on 786-0 renal, in the assay on EKVX NSCLC, with NCI-H23 lung, in the assay on UACC-62 melanoma, with HCT-15 colon and in the assay with U251 CNS was above 100 µM throughout. The TGI in the assay on HS 578T breast, in the assay on OVCAR-3 ovarian and with SF-295 CNS was above 100 µM in each case.

In the case of `O=[N+]([O-])c1ccc(C2NC(=S)NC3c4cc([N+](=O)[O-])ccc4CCCC23)cc1` (stereo not given), the TGI in the assay on K-562 leukemia, in the assay on MCF7 breast, with SN12C renal, with NCI-H226 lung, in the assay with BT-549 breast and in the assay on HL-60(TB) leukemia was above 100 µM throughout. For the same molecule, the total growth inhibition concentration (TGI) in the assay on 786-0 renal, in the assay on EKVX NSCLC, in the assay with NCI-H23 lung, in the assay with UACC-62 melanoma, in the assay on HCT-15 colon and in the assay with U251 CNS was above 100 µM each time. For the same molecule, the TGI in the assay on HS 578T breast, with OVCAR-3 ovarian and in the assay on SF-295 CNS was above 100 µM each time.

On to `CC1=NC(=O)CNN1C1=NNC2(C(=O)N1)c1ccccc1-c1ccccc12`, for which the TGI in the assay on K-562 leukemia, in the assay with MCF7 breast, in the assay on SN12C renal, with NCI-H226 lung, in the assay on BT-549 breast and in the assay with HL-60(TB) leukemia was above 100 µM in each case. Besides, the TGI with 786-0 renal, with EKVX NSCLC, with NCI-H23 lung, with UACC-62 melanoma, in the assay with HCT-15 colon and with U251 CNS was above 100 µM throughout. The concentration for total growth inhibition (TGI) in the assay on HS 578T breast, with OVCAR-3 ovarian and in the assay with SF-295 CNS was above 100 µM in each case.

As to `C[C@@]12C[C@@H](c3ccccc3O1)N1CCCSC1=N2`, the total growth inhibition concentration (TGI) with K-562 leukemia, in the assay on MCF7 breast, in the assay on SN12C renal, in the assay with NCI-H226 lung, in the assay on BT-549 breast and in the assay with HL-60(TB) leukemia was above 100 µM throughout. Also, the TGI in the assay on 786-0 renal, in the assay with EKVX NSCLC, with NCI-H23 lung, with UACC-62 melanoma, in the assay with HCT-15 colon and in the assay on U251 CNS was above 100 µM each time. In addition, the TGI with HS 578T breast, with OVCAR-3 ovarian and with SF-295 CNS was above 100 µM each time.

For `Cc1ccc(/C=C2\CCS(=O)(=O)c3ccccc3C2=O)cc1`, the TGI was above 100 µM in the assay with K-562 leukemia; 34.8 µM in the assay on MCF7 breast; 45.1 µM in the assay on SN12C renal; 36.2 µM in the assay with NCI-H226 lung; 34 µM in the assay with BT-549 breast; 73.1 µM in the assay with HL-60(TB) leukemia. Further, the TGI in the assay on 786-0 renal is 34 µM; with EKVX NSCLC it was 34.9 µM; in the assay on NCI-H23 lung, 29.6 µM; in the assay on UACC-62 melanoma, 33.4 µM; in the assay on HCT-15 colon it was 27.7 µM; in the assay on U251 CNS, 30.8 µM. The figures for the TGI in the assay with HS 578T breast, in the assay on OVCAR-3 ovarian and with SF-295 CNS were above 100 µM, 37.7 µM and 40.5 µM, respectively.

For the molecule `COc1cccc(C2c3cc4c(cc3OC(NNC(N)=O)C2C)OCO4)c1OC` (stereo not given), the TGI in the assay on K-562 leukemia is 88 µM; in the assay on MCF7 breast, above 100 µM; in the assay on SN12C renal it was above 100 µM; with NCI-H226 lung, 76.1 µM; in the assay on BT-549 breast it was above 100 µM; in the assay with HL-60(TB) leukemia it was 57.4 µM. Also, the TGI in the assay with 786-0 renal was 16.5 µM; in the assay with EKVX NSCLC, above 100 µM; in the assay with NCI-H23 lung, 77.8 µM; with UACC-62 melanoma, 53 µM; in the assay with HCT-15 colon, 77.7 µM; with U251 CNS, 68.2 µM. Also, the total growth inhibition concentration (TGI) is 45.9 µM with HS 578T breast, 50.2 µM in the assay on OVCAR-3 ovarian and 43.3 µM with SF-295 CNS.

Take `O=C(N/N=C\c1ccc(Cl)cc1)Nc1cccc2ccccc12`: the concentration for total growth inhibition (TGI) was above 100 µM in the assay on K-562 leukemia; 22.3 µM with MCF7 breast; 76 µM in the assay on SN12C renal; above 30 µM in the assay with NCI-H226 lung; above 100 µM in the assay with BT-549 breast; 27.1 µM in the assay on HL-60(TB) leukemia. The TGI with 786-0 renal is 3.9 µM; in the assay on EKVX NSCLC, above 100 µM; with NCI-H23 lung it was 98.9 µM; in the assay on UACC-62 melanoma, above 100 µM; in the assay with HCT-15 colon, above 31.6 µM; in the assay with U251 CNS, 10.1 µM. Moreover, the TGI with HS 578T breast was 12 µM; with OVCAR-3 ovarian, 3.24 µM; in the assay with SF-295 CNS, 6.2 µM.
